Test results reported in US6656932B2, “Benzo thiadiazine matrix metalloproteinase inhibitors” (Warner-Lambert Company, priority 2001, dated 2003).

Columns and labels:
Type in all cases: biochemical
[1] = target: T1, MMP-7FL (full-length matrilysin) (Homo sapiens, UniProt P09237); test: Thiopeptolide hydrolysis assay, MMP-7FL; conditions: Table 2; thiopeptolide substrate, HEPES pH 7.0; read-out: IC50 (μM) Versus Certain MMPs: MMP07 (FL)
T1 sequence (P09237 95-267): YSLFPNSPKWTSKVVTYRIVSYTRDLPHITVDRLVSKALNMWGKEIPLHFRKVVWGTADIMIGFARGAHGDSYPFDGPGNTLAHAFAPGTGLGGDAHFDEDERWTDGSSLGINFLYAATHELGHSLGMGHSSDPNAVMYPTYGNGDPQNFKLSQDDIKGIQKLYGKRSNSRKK
Description: (§1) The invention compounds of Formula I have been evaluated in standard assays for their ability to inhibit the catalytic activity of various MMP enzymes.
(§2) Thiopeptolide substrates show virtually no decomposition or hydrolysis at or below neutral pH in the absence of a matrix metalloproteinase enzyme.
(§3) Several representative compounds have been evaluated for their ability to inhibit various matrix metalloproteinase enzymes.

[2] = target: MMP-13CD (catalytic domain of collagenase 3) (Homo sapiens, UniProt P45452); test: Thiopeptolide hydrolysis assay, MMP-13CD; conditions: Table 2; thiopeptolide substrate, HEPES pH 7.0; read-out: IC50 (μM) Versus Certain MMPs: MMP13 (CD)
Description: as §1, §2, §3

[3] = target: T2, MMP-1FL (full-length interstitial collagenase) (Homo sapiens, UniProt P03956); test: Thiopeptolide hydrolysis assay, MMP-1FL; conditions: Table 2; thiopeptolide substrate, HEPES pH 7.0; read-out: IC50 (μM) Versus Certain MMPs: MMP01 (FL)
T2 sequence (P03956 100-469): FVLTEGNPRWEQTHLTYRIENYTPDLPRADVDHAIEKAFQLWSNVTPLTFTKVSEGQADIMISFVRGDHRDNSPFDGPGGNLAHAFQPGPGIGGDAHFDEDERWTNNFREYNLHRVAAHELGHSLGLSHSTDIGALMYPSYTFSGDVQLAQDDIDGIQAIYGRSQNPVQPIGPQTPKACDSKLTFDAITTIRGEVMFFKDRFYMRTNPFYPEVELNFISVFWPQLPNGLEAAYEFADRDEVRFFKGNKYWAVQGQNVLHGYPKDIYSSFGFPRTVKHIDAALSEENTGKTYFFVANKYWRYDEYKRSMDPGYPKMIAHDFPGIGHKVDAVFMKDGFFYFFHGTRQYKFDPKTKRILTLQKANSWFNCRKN
Description: as §1, §2, §3

[4] = target: MMP-3CD (catalytic domain of stromelysin-1) (Homo sapiens, UniProt P08254); test: Thiopeptolide hydrolysis assay, MMP-3CD; conditions: Table 2; thiopeptolide substrate, MES buffer pH 6.0; read-out: IC50 (μM) Versus Certain MMPs: MMP03 (CD)
Sequence of MMP-3CD (catalytic domain of stromelysin-1) (P08254 100-272 limits assumed): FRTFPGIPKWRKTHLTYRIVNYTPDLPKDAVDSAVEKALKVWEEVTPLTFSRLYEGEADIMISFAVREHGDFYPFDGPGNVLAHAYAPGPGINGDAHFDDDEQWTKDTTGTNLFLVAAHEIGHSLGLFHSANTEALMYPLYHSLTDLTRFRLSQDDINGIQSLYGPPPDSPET
Method: as §1, §2, §3
It should be appreciated that the assay buffer used with MMP-3CD was 50 mM of N-morpholinoethane sulfonate (“MES”) at pH 6.0 rather than the HEPES buffer at pH 7.0 described above.

[5] = target: T3, MMP-2FL (full-length Gelatinase A) (Homo sapiens, UniProt P08253); test: Thiopeptolide hydrolysis assay, MMP-2FL; conditions: Table 2; thiopeptolide substrate, HEPES pH 7.0; read-out: IC50 (μM) Versus Certain MMPs: MMP02 (FL)
T3 sequence (P08253 110-660): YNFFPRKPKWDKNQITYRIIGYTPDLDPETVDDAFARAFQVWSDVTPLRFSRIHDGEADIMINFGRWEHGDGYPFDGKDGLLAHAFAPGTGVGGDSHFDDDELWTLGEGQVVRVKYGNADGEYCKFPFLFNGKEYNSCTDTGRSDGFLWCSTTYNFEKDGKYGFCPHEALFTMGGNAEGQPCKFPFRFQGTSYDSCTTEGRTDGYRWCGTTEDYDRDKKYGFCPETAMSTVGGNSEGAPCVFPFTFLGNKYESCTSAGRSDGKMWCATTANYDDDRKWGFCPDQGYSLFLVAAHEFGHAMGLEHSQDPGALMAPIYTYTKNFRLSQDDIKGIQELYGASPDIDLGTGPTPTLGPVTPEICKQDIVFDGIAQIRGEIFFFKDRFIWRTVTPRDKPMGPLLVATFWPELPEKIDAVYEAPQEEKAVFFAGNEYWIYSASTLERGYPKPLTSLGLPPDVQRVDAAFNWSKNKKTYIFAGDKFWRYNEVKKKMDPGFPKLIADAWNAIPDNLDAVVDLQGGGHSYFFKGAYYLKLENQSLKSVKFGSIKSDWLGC
Description: as §1, §2, §3

[6] = target: MMP-9FL (full-length Gelatinase B) (Homo sapiens, UniProt P14780); test: Thiopeptolide hydrolysis assay, MMP-9FL; conditions: Table 2; thiopeptolide substrate, HEPES pH 7.0; read-out: IC50 (μM) Versus Certain MMPs: MMP09 (FL)
Sequence of MMP-9FL (full-length Gelatinase B) (P14780 94-707, species assumed): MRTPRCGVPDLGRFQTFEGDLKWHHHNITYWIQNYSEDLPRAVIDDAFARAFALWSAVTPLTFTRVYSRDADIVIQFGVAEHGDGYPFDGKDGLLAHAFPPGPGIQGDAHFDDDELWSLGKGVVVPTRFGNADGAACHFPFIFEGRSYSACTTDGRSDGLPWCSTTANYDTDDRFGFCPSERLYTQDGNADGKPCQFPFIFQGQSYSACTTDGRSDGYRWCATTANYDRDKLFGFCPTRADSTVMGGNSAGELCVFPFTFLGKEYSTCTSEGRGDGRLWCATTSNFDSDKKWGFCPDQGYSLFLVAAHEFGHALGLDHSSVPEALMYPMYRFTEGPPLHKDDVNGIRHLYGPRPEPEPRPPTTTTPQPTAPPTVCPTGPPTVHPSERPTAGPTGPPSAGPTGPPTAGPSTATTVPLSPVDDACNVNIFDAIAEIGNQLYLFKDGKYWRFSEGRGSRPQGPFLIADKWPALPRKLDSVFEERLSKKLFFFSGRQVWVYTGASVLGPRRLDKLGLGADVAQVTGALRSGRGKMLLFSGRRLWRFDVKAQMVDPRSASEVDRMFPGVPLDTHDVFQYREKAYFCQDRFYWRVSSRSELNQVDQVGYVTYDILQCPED
Description: as §1, §2, §3

[7] = target: MMP-14CD (catalytic domain of MMP-14) (Homo sapiens, UniProt P50281); test: Thiopeptolide hydrolysis assay, MMP-14CD; conditions: Table 2; thiopeptolide substrate, HEPES pH 7.0; read-out: IC50 (μM) Versus Certain MMPs: MMP14 (CD)
Description: as §1, §2, §3

Row | IC50 [1] | IC50 [2] | IC50 [3] | IC50 [4] | IC50 [5] | IC50 [6] | IC50 [7] | SMILES
1 | > 100 µM | 0.066 µM | > 100 µM | > 100 µM | > 100 µM | > 100 µM | > 100 µM | CN1C(=O)N(Cc2ccc(C(=O)O)cc2)S(=O)(=O)c2cc(C(=O)NCc3ccccc3)ccc21 [Example 11, 4-(7-Benzylcarbamoyl-4-methyl-1,1,3-trioxo-3,4-dihydro-H-1l^6-benzo[1,2,4]thiadiazin-2-ylmethyl)-benzoic Acid]
2 | 51 µM | 0.17 µM | > 30 µM | > 30 µM | > 100 µM | > 30 µM | > 30 µM | COc1ccc(CNC(=O)c2ccc3c(c2)S(=O)(=O)N(Cc2ccccc2)C(=O)N3C)cc1 [Example 5, 2-Benzyl-4-methyl-1,1,3-trioxo-1,2,3,4-tetrahydro-1l^6-benzo[1,2,4]thiadiazine-7-carboxylic acid 4-methoxy-benzylamide]
3 | > 100 µM | 0.011 µM | > 100 µM | 64 µM | > 100 µM | > 100 µM | > 100 µM | COc1ccc(CNC(=O)c2ccc3c(c2)S(=O)(=O)N(Cc2ccc(C(=O)O)cc2)C(=O)N3C)cc1 [Example 13, 4-[7-(4-Methoxy-benzylcarbamoyl)-4-methyl-1,1,3-trioxo-3,4-dihydro-1H-1l^6-benzo[1,2,4]thiadiazin-2-ylmethyl]-benzoic Acid]
